Data on 15 compounds can be found in PubChem BioAssay (NCI).

Holding throughout (test): NCI anticancer screen, dose series, 48 h
Test [1] deals with A498 renal.
Test [2] relates to SK-OV-3 ovarian.
For test [3], the system named is HCT-15 colon.
Test [4] deals with MDA-MB-231 breast.
The test system of test [5] is SK-MEL-28 melanoma.
Test [6] relates to SN12C renal.
Test [7] relates to EKVX NSCLC.
Test [8] concerns MOLT-4 leukemia.
For test [9], the system named is RXF 393 renal.
Test [10] deals with OVCAR-4 ovarian.
The test system of test [11] is IGROV1 ovarian.
Test [12] relates to OVCAR-8 ovarian.
Test [13] concerns NCI-H460 lung.
The subject of test [14] is HS 578T breast.
For test [15], the system named is UO-31 renal.
Test [16] concerns SNB-75 CNS.
For test [17], the system named is CCRF-CEM leukemia.
In test [18] the test system is MALME-3M melanoma.
Test [19] has as its system OVCAR-5 ovarian.

The structures appear in SMILES notation.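 Grown in 96-well plates, cells were treated for 48 hours with each compound at five concentrations. Insufficient inhibition: endpoint recorded as highest concentration tested. Here, GI50 denotes the concentration required for 50% inhibition of growth. At the TGI there is no net growth.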 Where only a bound is given, the exact number is not on record here.

Take `CC(C)/C(Cl)=N\OC(=O)Nc1ccc(F)cc1F`: the TGI is 31.1 µM in [1]; 30.8 µM in [2]; 21.8 µM in test [3]; 6.34 µM in test [4]; 25.4 µM in [5]; 21.1 µM in [6]. The TGI in test [7] was 13.8 µM; in [8], 3.99 µM; in test [9], 12.6 µM; in test [10], 10.3 µM; in test [11], 30.9 µM; in [12], 31.6 µM. Moreover, the TGI in test [13] was 43.1 µM; in test [14], 52.7 µM; in test [15] it was 17.8 µM; in test [16], 33.6 µM; in test [17], greater than 21.7 µM; in [18] it was 3.58 µM. For the same compound, in test [19], the TGI was determined as 33.5 µM.

In the case of `CC(=O)N1N(c2ccc([N+](=O)[O-])cc2)C(=O)C1(C)C`, the TGI in test [1] was greater than 100 µM; in [2], greater than 100 µM; in test [3], 34.5 µM; in test [4], 45.7 µM; in [5], 37.4 µM; in test [6], 32.5 µM. In addition, the TGI in test [7] came to 34.5 µM; in test [8] it was 43.4 µM; in test [9], 32.3 µM; in [10], 35 µM; in test [11], 44.8 µM; in test [12] it was 59 µM. The TGI in test [13] was greater than 100 µM; in [14], greater than 100 µM; in [15] it was 32.4 µM; in [16] it was 37.7 µM; in [17], 33.3 µM; in test [18], 56 µM. This compound also had a TGI in test [19] of 44.3 µM.

`COc1cccc(C2SCC(=O)N2c2ccc(-n3c(-c4ccccc4)nc4ccccc4c3=O)cc2)c1OC` (stereo not given): the TGI in [1], in test [2], in test [3], in test [4], in [5] and in test [6] was greater than 100 µM throughout. The TGI in [7], in [8], in test [9], in test [10], in test [11] and in test [12] was greater than 100 µM throughout. For the same compound, the TGI in test [13], in test [14], in test [15], in [16], in [17] and in test [18] was greater than 100 µM in each case. Besides, the TGI in test [19] was greater than 100 µM.

For the compound `CC(C)CCc1n[nH]c(=O)n1/N=C\c1ccccc1`, the TGI in test [1], in test [2], in [3], in [4], in test [5] and in test [6] was greater than 100 µM throughout. Besides, the TGI in test [7], in [8], in [9], in [10], in test [11] and in test [12] was greater than 100 µM in each case. In addition, the TGI in test [13] is greater than 100 µM; in [14], greater than 100 µM; in test [15] it was 86.1 µM; in test [16], greater than 100 µM; in test [17], greater than 100 µM; in [18] it was greater than 100 µM. In [19], this compound yielded a TGI greater than 100 µM.

Consider `COc1cc(Oc2nc3c(N)cc(C(F)(F)F)cc3nc2-c2ccccc2)cc(OC)c1OC`, for which the TGI is 81.5 µM in test [1]; greater than 66.5 µM in test [2]; greater than 100 µM in test [3]; greater than 100 µM in test [4]; greater than 68.7 µM in test [5]; greater than 100 µM in [6]. Besides, the TGI was greater than 100 µM in [7]; greater than 100 µM in [8]; 52 µM in test [9]; greater than 100 µM in test [10]; greater than 24.3 µM in [11]; greater than 46.3 µM in test [12]. Further, the TGI in test [13] is greater than 100 µM; in test [14] it was greater than 53.8 µM; in test [15], greater than 100 µM; in test [16], 26 µM; in test [17], greater than 31.6 µM; in test [18] it was 11.5 µM. The compound further gave a TGI in test [19] greater than 100 µM.

With `CC1=N[C@](C)(C2CC3C=CC2C3=O)COC1=O` (stereo not given in full), the TGI in test [1], in [2], in [4], in [5], in test [6] and in test [7] was greater than 100 µM in each case. Moreover, the TGI in test [8], in test [9], in test [10], in test [11], in [12] and in test [13] was greater than 100 µM in each case. For the same compound, the TGI in test [14], in test [15], in test [16], in [17], in [18] and in test [19] was greater than 100 µM throughout.

Turning to `CCOc1cc2c(cc1O)/C(=N/NS(=O)(=O)c1ccc(C)cc1)C[C@@H]1[C@@H]2CC[C@]2(C)[C@@H](O)CC[C@@H]12`, the TGI in test [1], in [2], in [3], in test [4], in [5] and in [6] was greater than 100 µM throughout. The TGI in test [7] is greater than 100 µM; in test [8], 7.04 µM; in [9] it was greater than 100 µM; in test [10] it was greater than 100 µM; in test [11], greater than 100 µM; in test [12] it was greater than 100 µM. For the same compound, the TGI in test [13] was greater than 100 µM; in test [14], greater than 100 µM; in test [15] it was greater than 100 µM; in test [16], 67.7 µM; in test [17], greater than 100 µM; in test [18] it was greater than 100 µM. The same compound gave a TGI in test [19] of 46.4 µM. Besides, in [6], the GI50 is 12.1 µM.

Regarding `O=C(/C=C/c1ccccc1)CSc1nc2ccc(I)cc2c(=O)n1Cc1ccccc1`, the TGI in test [1] was 46.4 µM; in [2] it was greater than 100 µM; in test [3], greater than 100 µM; in [4], greater than 100 µM; in test [5], greater than 100 µM; in [6], 30.8 µM. In addition, the TGI is greater than 37.2 µM in [7]; 35.2 µM in test [8]; greater than 94.5 µM in test [9]; greater than 100 µM in test [10]; greater than 68 µM in [11]; greater than 100 µM in test [12]. Further, the TGI is greater than 100 µM in [13]; 67.7 µM in test [14]; 0.553 µM in test [15]; greater than 95.7 µM in test [16]; greater than 59.2 µM in [17]; 51.3 µM in test [18]. The compound further returned a TGI in test [19] greater than 100 µM.

On to `COC(=O)CC(=O)Nc1sccc1S(=O)(=O)c1ccccc1`, for which the TGI in test [1], in [2], in [3], in [4], in test [5] and in test [6] was greater than 100 µM throughout. In addition, the TGI in test [7], in test [8], in test [9], in test [10], in test [11] and in test [12] was greater than 100 µM throughout. Besides, the TGI in test [13], in test [14], in test [15], in test [16], in test [17] and in test [18] was greater than 100 µM in each case. In test [19], the TGI was greater than 100 µM.

Consider `CCOC(=O)/C=C(\C(=O)OCC)n1ccc(=O)n(CC(=O)OCC)c1=O`, for which the TGI stood at 31.7 µM in test [1]; 32.4 µM in test [2]; 4.4 µM in test [3]; 17.2 µM in [4]; 15.7 µM in [5]; 9.38 µM in test [6]. Besides, the TGI in test [7] was 35.5 µM; in test [8], 4.62 µM; in [9], 2.97 µM; in [10], greater than 31.2 µM; in [11], 19.3 µM; in test [12] it was 14.3 µM. The TGI in test [13] worked out at 32.2 µM; in [14] it was 53.7 µM; in [15], 17.5 µM; in test [16], 24.5 µM; in test [17], 3.29 µM; in [18] it was 5.41 µM. This compound also yielded a TGI in [19] of 10.1 µM.

Turning to `O=C1Nc2ccccc2/C1=C/c1c(Cl)[nH]c2ccc(O)cc12`, the TGI in [1] worked out at 11.3 µM; in test [2] it was 30.4 µM; in test [3] it was 17.5 µM; in test [4], 6.77 µM; in [5] it was 22.5 µM; in test [6], 5.22 µM. Moreover, the TGI is 22.5 µM in test [7]; 40.1 µM in test [8]; 9.02 µM in [9]; 38.5 µM in test [10]; 13.5 µM in test [11]; 12.8 µM in test [12]. Further, the TGI was 13.9 µM in test [13]; greater than 100 µM in test [14]; 28.2 µM in test [15]; 12.4 µM in test [16]; 10.1 µM in test [17]; 15.7 µM in test [18]. The compound further gave a TGI in test [19] of 17.1 µM.

On to `CCOc1ccc(NCC2CC/C(=C\c3ccc(O)cc3)C2=O)cc1` (stereo not given), for which the TGI in test [1] is 38.9 µM; in test [2], greater than 58.5 µM; in test [3], 17.8 µM; in test [4], 38.4 µM; in [5], 29.2 µM; in test [6] it was 35.6 µM. Moreover, the TGI in [7] is 39.5 µM; in [8], greater than 38.4 µM; in test [9], 32.7 µM; in [10], 31.5 µM; in test [11] it was 33.9 µM; in test [12] it was 34.4 µM. Moreover, the TGI in test [13] was determined as 54.2 µM; in [14], 73.7 µM; in test [15], 33.6 µM; in test [16], 27.8 µM; in test [17] it was 49 µM; in test [18] it was 28.5 µM. Further, in test [19], the TGI came to 29 µM.

Regarding `Nc1nc(N)c2[nH]cnc2n1` (tested in a mixture with another compound), the TGI in test [1] was 45.1 µM; in test [2], greater than 100 µM; in test [3], greater than 100 µM; in test [4], greater than 100 µM; in [5], greater than 100 µM; in test [6], greater than 100 µM. For the same compound, the TGI in [7] is 60.1 µM; in test [8], greater than 100 µM; in test [9], 80.6 µM; in test [10], greater than 100 µM; in [11], greater than 100 µM; in [12] it was greater than 100 µM. The TGI in test [13] is 63.4 µM; in test [14], greater than 100 µM; in [15], 58.4 µM; in [16], greater than 100 µM; in test [17] it was greater than 100 µM; in test [18], greater than 100 µM. The TGI in [19] is greater than 100 µM.

Take `COc1ccc(C(=O)N(C(=S)OCCOc2ccccc2)c2ccccc2)cc1`: the TGI in test [1] is 73.9 µM; in test [2], greater than 100 µM; in test [3] it was greater than 100 µM; in [4], greater than 100 µM; in test [5] it was greater than 100 µM; in test [6] it was greater than 100 µM. The TGI in test [7] was 96.6 µM; in test [8], 53.8 µM; in test [9] it was 98.5 µM; in [10], greater than 100 µM; in test [11] it was greater than 100 µM; in [12], greater than 100 µM. Besides, the TGI in test [13] is greater than 100 µM; in test [14] it was greater than 100 µM; in [15], 29.9 µM; in test [16], 27.9 µM; in [17], 66.3 µM; in test [18], 88.5 µM. Further, the TGI in test [19] was greater than 100 µM.

As for `O=c1[nH]c(-c2ccccc2)nc2c1sc1nc3ccccc3n12`, the TGI in test [1], in [2], in test [3], in test [4], in [5] and in [6] was greater than 100 µM in each case. The TGI in test [7], in test [8], in test [9], in test [10], in test [11] and in [12] was greater than 100 µM throughout. Moreover, the TGI in [13] is greater than 100 µM; in test [14] it was 82.5 µM; in test [15] it was greater than 100 µM; in test [16], greater than 100 µM; in test [17], greater than 100 µM; in [18] it was greater than 100 µM. The compound further returned a TGI in test [19] greater than 100 µM.
